Laboratory results published in ChEMBL document CHEMBL1201862, “PubChem BioAssay data set” (2004).
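Cultured in 96-well plates, cells were exposed to test compound for 48 hours across five concentrations. GI50 marks 50% less growth.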 The source made the active and inactive calls. Rule as the data show it: active = GI50 up to about 1.1 µM and inactive = higher. Residues, ends and D or L forms follow the SMILES beside them. *: point of attachment. Boc = CC(C)(C)OC(=O)*; OBn = c1ccc(CO*)cc1

How the values were obtained:
Test in all cases: growth of human tumour cells (NCI), 48 h
IGROV-1 = tested on: IGROV-1
KM12 = tested on: KM12
M14 = tested on: M14
CCRF-CEM = tested on: CCRF-CEM
SW-620 = tested on: SW-620
DU-145 = tested on: DU-145
SNB-75 = tested on: SNB-75
UACC-62 = tested on: UACC-62
T47D = tested on: T47D
UACC-257 = tested on: UACC-257
K562 = tested on: K562
EKVX = tested on: EKVX
TK-10 = tested on: TK-10
MDA-N = tested on: MDA-N
LOX IMVI = tested on: LOX IMVI
SK-MEL-5 = tested on: SK-MEL-5
RXF 393 = tested on: RXF 393
HT-29 = tested on: HT-29
HCC 2998 = tested on: HCC 2998
CAKI-1 = tested on: CAKI-1
HL-60 = tested on: HL-60
RPMI-8226 = tested on: RPMI-8226
786-0 = tested on: 786-0
SK-OV-3 = tested on: SK-OV-3
HOP-62 = tested on: HOP-62
COLO 205 = tested on: COLO 205
OVCAR-8 = tested on: OVCAR-8
A549 = tested on: A549
SN12C = tested on: SN12C
SF-295 = tested on: SF-295
MDA-MB-231 = tested on: MDA-MB-231
PC-3 = tested on: PC-3
MCF7 = tested on: MCF7
SK-MEL-28 = tested on: SK-MEL-28
SR = tested on: SR
NCI-H23 = tested on: NCI-H23
MOLT-4 = tested on: MOLT-4
HCT-15 = tested on: HCT-15
Malme-3M = tested on: Malme-3M
NCI/ADR-RES = tested on: NCI/ADR-RES
SF-539 = tested on: SF-539
MDA-MB-435 = tested on: MDA-MB-435
OVCAR-5 = tested on: OVCAR-5
HCT-116 = tested on: HCT-116
A498 = tested on: A498
OVCAR-3 = tested on: OVCAR-3
SK-MEL-2 = tested on: SK-MEL-2
OVCAR-4 = tested on: OVCAR-4
U-251 = tested on: U-251
UO-31 = tested on: UO-31
SF-268 = tested on: SF-268
NCI-H460 = tested on: NCI-H460
NCI-H522 = tested on: NCI-H522
ACHN = tested on: ACHN
SNB-19 = tested on: SNB-19

## CC(C)(Oc1ccc(C(=O)c2ccc(Cl)cc2)cc1Cl)C(=O)N1CCN(CCO)CC1
IGROV-1
  GI50: > 10 µM (inactive)
KM12
  GI50: > 10 µM (inactive)
M14
  GI50: > 10 µM (inactive)
CCRF-CEM
  GI50: > 10 µM (inactive)
SW-620
  GI50: > 10 µM (inactive)
DU-145
  GI50: 7.05 µM (inactive)
SNB-75
  GI50: > 10 µM (inactive)
UACC-62
  GI50: > 10 µM (inactive)
T47D
  GI50: 5.85 µM (inactive)
UACC-257
  GI50: 3.39 µM (inactive)
K562
  GI50: 2.85 µM (inactive)
EKVX
  GI50: > 10 µM (inactive)
TK-10
  GI50: > 10 µM (inactive)
MDA-N
  GI50: > 10 µM (inactive)
LOX IMVI
  GI50: > 10 µM (inactive)
SK-MEL-5
  GI50: 3.91 µM (inactive)
RXF 393
  GI50: 6.27 µM (inactive)
HT-29
  GI50: > 10 µM (inactive)
HCC 2998
  GI50: > 10 µM (inactive)
CAKI-1
  GI50: > 10 µM (inactive)
HL-60
  GI50: 3.53 µM (inactive)
RPMI-8226
  GI50: 4.51 µM (inactive)
786-0
  GI50: > 10 µM (inactive)
SK-OV-3
  GI50: > 10 µM (inactive)
HOP-62
  GI50: > 10 µM (inactive)
COLO 205
  GI50: > 10 µM (inactive)
OVCAR-8
  GI50: > 10 µM (inactive)
A549
  GI50: > 10 µM (inactive)
SN12C
  GI50: > 10 µM (inactive)
SF-295
  GI50: 8.59 µM (inactive)
MDA-MB-231
  GI50: > 10 µM (inactive)
PC-3
  GI50: 3.93 µM (inactive)
MCF7
  GI50: 5.12 µM (inactive)
SK-MEL-28
  GI50: > 10 µM (inactive)
SR
  GI50: 2.96 µM (inactive)
NCI-H23
  GI50: 4.24 µM (inactive)
MOLT-4
  GI50: 4.4 µM (inactive)
HCT-15
  GI50: > 10 µM
Malme-3M
  GI50: 9.42 µM (inactive)

## COc1ccc(/C=C\c2cc(OC)c(OC)c(OC)c2)cc1OP(=O)(O)O
NCI/ADR-RES
  GI50: 0.000137 µM (active)

## CC(C)C(NC(=O)C(Cc1ccccc1)NC(=O)OC(C)(C)C)C(=O)NCC(=O)OCc1ccccc1 (stereo not drawn) (Boc-Phe-Val-Gly-OBn; configuration not given here)
SF-539
  GI50: 25.3 µM (inactive)
IGROV-1
  GI50: 14.7 µM (inactive)
M14
  GI50: 20.9 µM (inactive)
MDA-MB-435
  GI50: 6.92 µM (inactive)
OVCAR-5
  GI50: 15.1 µM (inactive)
CCRF-CEM
  GI50: 20 µM (inactive)
SW-620
  GI50: 14.3 µM (inactive)
DU-145
  GI50: 14.3 µM (inactive)
SNB-75
  GI50: 20.5 µM (inactive)
HCT-116
  GI50: 23.7 µM (inactive)
UACC-62
  GI50: 16.9 µM (inactive)
T47D
  GI50: 18.7 µM (inactive)
UACC-257
  GI50: 20.4 µM (inactive)
A498
  GI50: 44.6 µM (inactive)
OVCAR-3
  GI50: 14.4 µM (inactive)
K562
  GI50: 7.76 µM (inactive)
EKVX
  GI50: 20.4 µM (inactive)
TK-10
  GI50: 13 µM (inactive)
MDA-N
  GI50: 19.4 µM (inactive)
SK-MEL-2
  GI50: 17.8 µM (inactive)
LOX IMVI
  GI50: 14.9 µM (inactive)
HT-29
  GI50: 17.5 µM (inactive)
HCC 2998
  GI50: 17.8 µM (inactive)
CAKI-1
  GI50: 18.8 µM (inactive)
OVCAR-4
  GI50: 3.87 µM (inactive)
HL-60
  GI50: 13.4 µM (inactive)
U-251
  GI50: 17.6 µM (inactive)
UO-31
  GI50: 21.7 µM (inactive)
RPMI-8226
  GI50: 16.5 µM (inactive)
786-0
  GI50: 17.9 µM (inactive)
SF-268
  GI50: 14.7 µM (inactive)
SK-OV-3
  GI50: 13.4 µM (inactive)
HOP-62
  GI50: 19.2 µM (inactive)
COLO 205
  GI50: 20.6 µM (inactive)
OVCAR-8
  GI50: 19.5 µM (inactive)
SN12C
  GI50: 18 µM (inactive)
NCI-H460
  GI50: 18.8 µM (inactive)
SF-295
  GI50: 18.6 µM (inactive)
MDA-MB-231
  GI50: 16.6 µM (inactive)
PC-3
  GI50: 15.7 µM (inactive)
MCF7
  GI50: > 10 µM (inactive)
SK-MEL-28
  GI50: 16.3 µM (inactive)
NCI/ADR-RES
  GI50: > 100 µM (inactive)
NCI-H522
  GI50: 6.55 µM (inactive)
ACHN
  GI50: 17.5 µM (inactive)
NCI-H23
  GI50: 16.8 µM (inactive)
MOLT-4
  GI50: 18.5 µM (inactive)
SNB-19
  GI50: 25.6 µM (inactive)
HCT-15
  GI50: 12.9 µM
Malme-3M
  GI50: 18.5 µM (inactive)
